The source of these data is patent publication US20250154173A1 (Merck Sharp & Dohme LLC, priority 2023, published 2025).

The test deals with T1, GST-RIPK1 (recombinant GST-RIPK1 kinase domain (residues 1-327)) (Homo sapiens, UniProt Q13546).
T1 construct: recombinant GST-RIPK1 kinase domain (residues 1-327) enzyme produced from baculovirus-transfected Sf21 cells; host or cells: baculovirus-transfected Sf21 insect cells
T1 sequence (Q13546 1-327): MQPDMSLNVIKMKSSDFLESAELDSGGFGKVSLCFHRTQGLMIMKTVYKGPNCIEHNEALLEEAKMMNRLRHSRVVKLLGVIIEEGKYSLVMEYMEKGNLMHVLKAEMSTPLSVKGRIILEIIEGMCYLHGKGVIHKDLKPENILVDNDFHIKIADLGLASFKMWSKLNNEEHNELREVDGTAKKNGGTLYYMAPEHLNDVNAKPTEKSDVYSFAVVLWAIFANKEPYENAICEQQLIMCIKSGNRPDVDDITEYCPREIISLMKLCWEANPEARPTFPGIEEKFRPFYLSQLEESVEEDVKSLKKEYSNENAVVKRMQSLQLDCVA
The test is described as follows: RIPK1-ADP-Glo Enzymatic Assay. The conditions noted are these: ten-point titration, top compound concentration of 100000 nM; 25 nM GST-RIPK1, 300 μM ATP, 3 μM dephosphorylated-MBP; 30 min pre-incubation, 150 min reaction. The test is classed as biochemical. In outline: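 ADP-Glo luminescence quantifies ADP formed over 150 minutes by 25 nM Sf21-produced GST-RIPK1 (1-327) using 300 μM ATP and 3 μM dephosphorylated MBP, following 30-minute compound preincubation at 1% DMSO. Ten-point 1:3 series from 100000 nM gave EC50 via four-parameter sigmoidal regression.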
For orientation: In ADP-Glo the light output rises with the ADP produced.

For orientation: EC50 means the concentration giving half of the maximal effect. For the molecule `O=C1N2[C@@H](CC[C@H]2c2ccc(F)cn2)O[C@]12C[C@@H](OCc1ccccc1)C2` [Example 3.1, (1s,3R,5′S,7a′R)-3-(benzyloxy)-5′-(5-fluoropyridin-2-yl)tetrahydro-3′H-spiro[cyclobutane-1,2′-pyrrolo[2,1-b]oxazol]-3′-one], the EC50 stood at 108 nM.

As for `Cn1ccc([C@@H]2CC[C@H]3OC4(CC(Oc5cccc(-c6ccnn6C)c5)C4)C(=O)N32)n1` (stereo partly drawn) [Example 19.10, (5′S,7a′R)-5′-(1-methyl-1H-pyrazol-3-yl)-3-[3-(1-methyl-1H-pyrazol-5-yl)phenoxy]tetrahydro-3′H-spiro[cyclobutane-1,2′-pyrrolo[2,1-b][1,3]oxazol]-3′-one], the EC50 amounted to 30 nM.

On to `Cn1cc(C2CCC3OC4(CC(Oc5cc(C#N)ncn5)C4)C(=O)N32)cn1` (single isomer, unassigned) [Example 6.4, 6-((((1s or r),3R,5′(R or S),7a′R)-5′-(1-methyl-1H-pyrazol-4-yl)-3′-oxotetrahydro-3′H-spiro[cyclobutane-1,2′-pyrrolo[2,1-b]oxazol]-3-yl)oxy)pyrimidine-4-carbonitrile], for which the EC50 turned out to be 2830 nM.

On to `CC(O[C@H]1C[C@@]2(C1)O[C@@H]1CC[C@@H](c3cc(F)cc(F)c3)N1C2=O)c1ccc(F)cn1` (single isomer, unassigned) [Example 12.1, (1R,3R,5′S,7a′R)-5′-(3,5-difluorophenyl)-3-((R or S)-1-(5-fluoropyridin-2-yl)ethoxy)tetrahydro-3′H-spiro[cyclobutane-1,2′-pyrrolo[2,1-b]oxazol]-3′-one], for which the EC50 was found to be 390 nM.

In the case of `O=C1N2C(CC[C@H]2c2cnccn2)OC12CC(OCc1cccc3cncc(F)c13)C2` (stereo partly drawn) [Example 18.72, (5′S)-3-[(4-fluoroisoquinolin-5-yl)methoxy]-5′-(pyrazin-2-yl)tetrahydro-3′H-spiro[cyclobutane-1,2′-pyrrolo[2,1-b][1,3]oxazol]-3′-one], the EC50 is 83 nM.

`O=C1N2[C@@H](CC[C@H]2c2cc(F)cc(F)c2)OC12CC(Oc1ccnc3c(F)cnn13)C2` (single isomer, unassigned) [Example 9.4]: the EC50 was 105 nM.

On to `O=C1N2C(CC[C@H]2c2cnccn2)OC12CC(OCc1cnn(-c3ccncc3)c1)C2` (stereo partly drawn) [Example 18.52, (5′S)-5′-(pyrazin-2-yl)-3-{[1-(pyridin-4-yl)-1H-pyrazol-4-yl]methoxy}tetrahydro-3′H-spiro[cyclobutane-1,2′-pyrrolo[2,1-b][1,3]oxazol]-3′-one], for which the EC50 worked out at 96 nM.

Regarding `O=C1N2[C@@H](CC[C@H]2c2ccccc2)OC12CC(Oc1cccc(-c3nnco3)c1)C2` (stereo partly drawn) [Example 8.16, (5′S,7a′R)-3-[3-(1,3,4-oxadiazol-2-yl)phenoxy]-5′-phenyltetrahydro-3′H-spiro[cyclobutane-1,2′-pyrrolo[2,1-b][1,3]oxazol]-3′-one], the EC50 was 58 nM.

`Cc1ccc(OC2CC3(C2)O[C@@H]2CC[C@@H](c4ccn(C)n4)N2C3=O)cn1` (stereo partly drawn) [Example 19.7, (5′S,7a′R)-5′-(1-methyl-1H-pyrazol-3-yl)-3-[(6-methylpyridin-3-yl)oxy]tetrahydro-3′H-spiro[cyclobutane-1,2′-pyrrolo[2,1-b][1,3]oxazol]-3′-one]: the EC50 was determined as 531 nM.

Regarding `O=C1N2[C@@H](CC[C@H]2c2ccc(F)cc2)O[C@]12C[C@H](Oc1cncc(F)c1)C2` [Example 9.48, (1r,3R,5′S,7a′R)-5′-(4-fluorophenyl)-3-[(5-fluoropyridin-3-yl)oxy]tetrahydro-3′H-spiro[cyclobutane-1,2′-pyrrolo[2,1-b][1,3]oxazol]-3′-one], the EC50 was 20 nM.

As for `O=C1N2C(CC[C@H]2c2cnccn2)OC12CC(OCc1ccc3nc(C4CC4)cn3c1)C2` (stereo partly drawn) [Example 18.22, (5′S)-3-[(2-cyclopropylimidazo[1,2-a]pyridin-6-yl)methoxy]-5′-(pyrazin-2-yl)tetrahydro-3′H-spiro[cyclobutane-1,2′-pyrrolo[2,1-b][1,3]oxazol]-3′-one], the EC50 turned out to be 74 nM.

For `O=C1N2C(CC[C@H]2c2cnccn2)OC12CC(OCc1cc(-n3ccnc3)ccn1)C2` (some centres unmarked) [Example 18.39], the EC50 amounted to 301 nM.

With `N#Cc1cccc(OC2CC3(C2)O[C@@H]2CC[C@@H](c4ccccc4)N2C3=O)c1` (stereo partly drawn) [Example 8.5, 3-{[(5′S,7a′R)-3′-oxo-5′-phenyltetrahydro-3′H-spiro[cyclobutane-1,2′-pyrrolo[2,1-b][1,3]oxazol]-3-yl]oxy}benzonitrile], the EC50 is 20 nM.

On to `O=C1N2C(CC[C@H]2c2cnccn2)OC12CC(OCc1cccc(Cn3ccnn3)c1)C2` (stereo partly drawn) [Example 18.76, (5′S)-5′-(pyrazin-2-yl)-3-({3-[(1H-1,2,3-triazol-1-yl)methyl]phenyl}methoxy)tetrahydro-3′H-spiro[cyclobutane-1,2′-pyrrolo[2,1-b][1,3]oxazol]-3′-one], for which the EC50 worked out at 168 nM.

For `O=C1N2C(CC[C@H]2c2cnccn2)OC12CC(OCc1nnc(Cc3ccccc3)s1)C2` (stereo partly drawn) [Example 18.64, (5′S)-3-[(5-benzyl-1,3,4-thiadiazol-2-yl)methoxy]-5′-(pyrazin-2-yl)tetrahydro-3′H-spiro[cyclobutane-1,2′-pyrrolo[2,1-b][1,3]oxazol]-3′-one], the EC50 was 122 nM.

For `O=C1N2[C@H](O[C@]13C[C@@H](OCc1ccccc1)C3)[C@@H](O)C[C@H]2c1cnccn1` [Example 21.1, (1s,3S,5′S,7′S,7a′R)-3-(benzyloxy)-7′-hydroxy-5′-(pyrazin-2-yl)tetrahydro-3′H-spiro[cyclobutane-1,2′-pyrrolo[2,1-b]oxazol]-3′-one], the EC50 was determined as 255 nM.

As to `O=C1N2C(CC[C@H]2c2cnccn2)OC12CC(OCc1nnc(Cc3ccccc3)s1)C2` (stereo partly drawn) [Example 18.12, (5′S)-3-[(5-benzyl-1,3,4-thiadiazol-2-yl)methoxy]-5′-(pyrazin-2-yl)tetrahydro-3′H-spiro[cyclobutane-1,2′-pyrrolo[2,1-b][1,3]oxazol]-3′-one], the concentration giving a half-maximal response (EC50) stood at 181 nM.

As to `Cc1cccnc1CO[C@H]1C[C@]2(C1)O[C@@H]1CC[C@@H](c3cnccn3)N1C2=O` [Example 20.1, (5′S,7a′R)-3-((3-methylpyridin-2-yl)methoxy)-5′-(pyrazin-2-yl)tetrahydro-3′H-spiro[cyclobutane-1,2′-pyrrolo[2,1-b]oxazol]-3′-one], the EC50 is 664 nM.

With `O=C1N2C(CC[C@H]2c2cnccn2)OC12CC(OCc1cnn(C3CC3)c1)C2` (stereo partly drawn) [Example 18.3, (5′S)-3-[(1-cyclopropyl-1H-pyrazol-4-yl)methoxy]-5′-(pyrazin-2-yl)tetrahydro-3′H-spiro[cyclobutane-1,2′-pyrrolo [2,1-b][1,3]oxazol]-3′-one], the EC50 was found to be 969 nM.

With `O=C1N2C(CC[C@H]2c2cnccn2)OC12CC(OCc1cc(Cl)ccc1-c1cnco1)C2` (stereo partly drawn) [Example 18.33, (5′S)-3-{[5-chloro-2-(1,3-oxazol-5-yl)phenyl]methoxy}-5′-(pyrazin-2-yl)tetrahydro-3′H-spiro[cyclobutane-1,2′-pyrrolo[2,1-b][1,3]oxazol]-3′-one], the EC50 worked out at 43 nM.

For “5-{[(1r,3R,5′S,7a′R)-3′-oxo-5′- phenyltetrahydro-3′H- spiro[cyclobutane-1,2′-pyrrolo[2,1- b][1,3]oxazol]-3-yl]oxy}pyridine-3- carbonitrile [Example 9.15]”, the EC50 stood at 73 nM.

Consider `N#Cc1cccc(COC2CC3(C2)O[C@@H]2CC[C@@H](c4cnccn4)N2C3=O)c1` (stereo partly drawn) [Example 18.109, 3-((((5′S,7a′R)-3′-oxo-5′-(pyrazin-2-yl)tetrahydro-3′H-spiro[cyclobutane-1,2′-pyrrolo[2,1-b]oxazol]-3-yl)oxy)methyl)benzonitrile], for which the EC50 turned out to be 25 nM.

As to `O=C1N2C(CC[C@H]2c2cnccn2)OC12CC(OCc1cccc3nccn13)C2` (stereo partly drawn) [Example 18.36, (5′S)-3-[(imidazo[1,2-a]pyridin-5-yl)methoxy]-5′-(pyrazin-2-yl)tetrahydro-3′H-spiro[cyclobutane-1,2′-pyrrolo[2,1-b][1,3]oxazol]-3′-one], the 50% effective concentration (EC50) worked out at 28 nM.

In the case of `N#CC1(c2ccc(COC3CC4(C3)OC3CC[C@@H](c5cnccn5)N3C4=O)c(Cl)c2)CC1` (stereo partly drawn) [Example 18.79, 1-[3-chloro-4-({[(5′S)-3′-oxo-5′-(pyrazin-2-yl)tetrahydro-3′H-spiro[cyclobutane-1,2′-pyrrolo[2,1-b][1,3]oxazol]-3-yl]oxy}methyl)phenyl]cyclopropane-1-carbonitrile], the EC50 came out at 20 nM.

In the case of `O=C1N2C(CC[C@H]2c2cnccn2)OC12CC(OCc1cc3ncccc3s1)C2` (stereo partly drawn) [Example 18.43, (5′S)-5′-(pyrazin-2-yl)-3-[(thieno[3,2-b]pyridin-2-yl)methoxy]tetrahydro-3′H-spiro[cyclobutane-1,2′-pyrrolo[2,1-b][1,3]oxazol]-3′-one], the EC50 is 6 nM.

Regarding `O=C1N2C(CC[C@H]2c2cnccn2)OC12CC(OCc1cccc(CCn3cnnc3)c1)C2` (stereo partly drawn) [Example 18.9, (5′S)-5′-(pyrazin-2-yl)-3-({3-[2-(4H-1,2,4-triazol-4-yl)ethyl]phenyl}methoxy)tetrahydro-3′H-spiro[cyclobutane-1,2′-pyrrolo[2,1-b][1,3]oxazol]-3′-one], the EC50 was 100 nM.
